doi:10.1101/2022.04.05.487228v1 (biorxiv, 2022)

Target: bovine rod opsin (unliganded, in ROS membranes) (Bos taurus, UniProt P02699)
Test: intrinsic Trp fluorescence quenching at […] nm
Assay type: binding

Chain of bovine rod opsin (unliganded, in ROS membranes) (P02699 whole entry): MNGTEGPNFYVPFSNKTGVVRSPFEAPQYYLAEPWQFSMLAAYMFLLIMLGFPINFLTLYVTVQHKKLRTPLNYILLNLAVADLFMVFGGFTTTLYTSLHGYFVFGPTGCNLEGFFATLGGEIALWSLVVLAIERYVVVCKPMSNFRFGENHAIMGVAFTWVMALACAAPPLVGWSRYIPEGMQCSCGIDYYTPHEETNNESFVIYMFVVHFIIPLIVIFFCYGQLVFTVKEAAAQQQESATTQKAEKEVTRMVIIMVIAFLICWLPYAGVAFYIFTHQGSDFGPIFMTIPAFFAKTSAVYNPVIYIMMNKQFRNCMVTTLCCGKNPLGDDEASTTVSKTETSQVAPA

| EC50 | SMILES |
| --- | --- |
| 275 ± 26 nM | Cc1cc(=O)oc2cc(OC(C(=O)c3ccccc3)c3ccccc3)ccc12 (stereo not shown) [CR1] |
| 375 ± 21 nM | Cc1c(OCc2ccc(C(=O)O)cc2)ccc2c3c(c(=O)oc12)CCC3 [CR2] |
| 207 ± 46 nM | Cc1ccc(C(=O)Oc2ccc3c4c(c(=O)oc3c2)CCCC4)cc1 [CR3] |
| 171 ± 23 nM | Cc1c(OC(C)C(=O)OCc2ccccc2)ccc2c3c(c(=O)oc12)CCC3 (stereo not shown) [CR4] |
